# Source: patent US20090246292A1, “ANTIMICROBIAL FORMULATIONS COMPRISING A QUINONE AND A COPPER SALT” (priority 2006, published 2009)
# Read-outs that look alike come from different tables or passages of the source.
# Experiments:
# S. aureus ATCC 29213 [1] = test: Synergy disc diffusion assay (SDDA), also supplemented;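 also: disc diffusion on Mueller-Hinton agar at pH 7.2, aerobic incubation at 37 °C lasting 19-20 h, two compounds assessed jointly for combined antimicrobial effect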
# Description: (e) Synergy Disc Diffusion Assay (SDDA)
# This is a variation on the DDA method, in which two compounds are tested together for their combined antimicrobial activity.
# Two test compounds A and B were placed on a single paper disc and the above described DDA procedure repeated.
# (f) Supplemented Disc Diffusion Assays
# (§6) For assays using S. aureus ATCC 29213 the supplements used were sodium chloride (100 mM), lipid (Tween™ 80 at 1% v/v) and horse serum (5% v/v).
# P. acnes NCTC 737 [2] = test: as above
# S. aureus ATCC 29213 [3] = test: Disc diffusion assay (DDA), also supplemented
# Description: The staphylococci were cultured and maintained on Mueller-Hinton Medium (agar and broth) at pH 7.2; cultures were incubated aerobically at 37° C. for 19-20 hours.
# (d) Disc Diffusion Assay (DDA)
# A sterile paper disc was impregnated with a sample of the test compound in a suitable solvent and 30 minutes allowed for the solvents to evaporate (where possible). The disc was then placed on an agar plate onto which the test micro-organism had been inoculated. The plate was then incubated under the conditions described above, following which it was examined visually for signs of bacterial growth. […] The diameter of this zone of “inhibition” was measured using a ProtoCOL™ automated zone sizer (Synbiosis, Cambridge, UK).
# (f) Supplemented Disc Diffusion Assays
# as §6
# P. acnes NCTC 737 [4] = test: Disc diffusion assay (DDA), also supplemented;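 also: paper disc carrying compound placed on inoculated Wilkins-Chalgren Anaerobe agar pH 6.0, with lipid or NaCl supplement where listed, anaerobic 37 °C for 72 h, inhibition zone diameter read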
# P. acnes NCTC 737 [5] = test: Minimum inhibitory concentration (MIC) assay; format: cell-based, Propionibacterium acnes
# Excerpt: (§1) (a) Minimum Inhibitory Concentration (MIC) Assay
# (§2) The culture media were as described above.
# (§3) The assays included both negative (culture medium with no micro-organisms) and positive (culture medium plus diluting solvent plus micro-organism) controls.
# P. acnes NCTC 737 [6] = test: Minimum bactericidal concentration (MBC) assay; format: cell-based, Propionibacterium acnes
# Description: (§4) (b) Minimum Bactericidal Concentration (MBC) Assay
# (§5) Following incubation they were examined visually for bacterial growth.
# S. aureus ATCC 29213 [7] = test: Minimum bactericidal concentration (MBC) assay; format: cell-based, Staphylococcus aureus
# Description: as §4, §5
# S. aureus ATCC 29213 [8] = test: Minimum inhibitory concentration (MIC) assay; format: cell-based, Staphylococcus aureus
# Excerpt: as §1, §2, §3
# [9] = quinone + CSL, salt and lipid (1% (v/v) triolein)
# [10] = quinone + CSPH, salt and lipid (1% (v/v) triolein)
# [11] = Example 8, single compound, salt and 1% (v/v) triolein
# [12] = copper salt + TBHQ on one disc, 200 μg of each (silicate 62 μg), unsupplemented
# [13] = copper salt + TBHQ vs larger zone of either compound alone, unsupplemented
# [14] = copper salt + TBHQ, salt and serum supplements
# [15] = copper salt + TBHQ, unsupplemented
# [16] = copper salt + TBHQ, salt and lipid (1% (v/v) Tween 80)
# [17] = copper salt alone, 200 μg per disc (silicate 62 μg), sodium chloride (100 mM)
# [18] = copper salt alone, P. acnes NCTC 737
# [19] = copper salt alone, S. aureus ATCC 29213
molecule,measurement,setting,value
Copper (II) salicylate,SDDA area increase,S. aureus ATCC 29213 [1],61.52%
same,SDDA increase,S. aureus ATCC 29213 [1],10.95 mm
same,SDDA with TBHQ,S. aureus ATCC 29213 [1],51.37 mm
same,SS SDDA area increase,S. aureus ATCC 29213 [1],9.37%
same,SS SDDA increase,S. aureus ATCC 29213 [1],2.00 mm
same,SS SDDA with TBHQ,S. aureus ATCC 29213 [1],45.68 mm
same,SDDA area increase,P. acnes NCTC 737 [2],150.52%
same,SDDA increase,P. acnes NCTC 737 [2],27.84 mm
same,SDDA with TBHQ,P. acnes NCTC 737 [2],75.61 mm
same,SL SDDA area increase,P. acnes NCTC 737 [2],84.98%
same,SL SDDA increase,P. acnes NCTC 737 [2],18.25 mm
same,SL SDDA with TBHQ,P. acnes NCTC 737 [2],68.94 mm
same,DDA,S. aureus ATCC 29213 [3],0 mm
same,DDA + lipid,S. aureus ATCC 29213 [3],0 mm
same,DDA + salt,S. aureus ATCC 29213 [3],0 mm
same,DDA + salt & serum,S. aureus ATCC 29213 [3],0 mm
same,DDA,P. acnes NCTC 737 [4],47.77 mm
same,DDA + lipid,P. acnes NCTC 737 [4],41.75 mm
same,DDA + salt,P. acnes NCTC 737 [4],46.08 mm
same,DDA + salt & lipid,P. acnes NCTC 737 [4],50.69 mm
same,MIC,P. acnes NCTC 737 [5],7.8 µg/mL
same,MIC/MBC ratio,P. acnes NCTC 737 [5],0.25
same,MBC,P. acnes NCTC 737 [6],31.25 µg/mL
same,MBC,S. aureus ATCC 29213 [7],>250 µg/mL
same,MIC,S. aureus ATCC 29213 [8],250 µg/mL
same,MIC/MBC ratio,S. aureus ATCC 29213 [8],<1
"O=C1C=CC(=O)C(Cl)=C1 [2-chloro-1,4-benzoquinone]",SDDA with CSL,P. acnes NCTC 737 [2],45.85 (±0.31) mm
same,SDDA with CSPH,P. acnes NCTC 737 [2],47.28 (±1.39) mm
same,SL SDDA area increase,P. acnes NCTC 737 [2]; [9],31.58%
same,SL SDDA increase,P. acnes NCTC 737 [2]; [9],6.26 mm
same,SL SDDA with CSL,P. acnes NCTC 737 [2]; [9],48.82 (±0.47) mm
same,SDDA area increase,"P. acnes NCTC 737 [2]; quinone + CSL, unsupplemented",26.16%
same,SDDA increase,"P. acnes NCTC 737 [2]; quinone + CSL, unsupplemented",5.03 mm
same,SL SDDA area increase,P. acnes NCTC 737 [2]; [10],3.75%
same,SL SDDA increase,P. acnes NCTC 737 [2]; [10],0.92 mm
same,SL SDDA with CSPH,P. acnes NCTC 737 [2]; [10],50.46 (±2.15) mm
same,SDDA area increase,"P. acnes NCTC 737 [2]; quinone + CSPH, unsupplemented",26.42%
same,SDDA increase,"P. acnes NCTC 737 [2]; quinone + CSPH, unsupplemented",5.23 mm
same,DDA,P. acnes NCTC 737 [4],22.15 (±0.53) mm
same,DDA + salt & lipid,P. acnes NCTC 737 [4]; [11],24.31 (±0.81) mm
CC1=CC(=O)C=CC1=O [2-methyl-p-benzoquinone],SDDA with CSL,P. acnes NCTC 737 [2],49.64 (±0.99) mm
same,SDDA with CSPH,P. acnes NCTC 737 [2],49.54 (±0.81) mm
same,SL SDDA area increase,P. acnes NCTC 737 [2]; [9],37.19%
same,SL SDDA increase,P. acnes NCTC 737 [2]; [9],7.29 mm
same,SL SDDA with CSL,P. acnes NCTC 737 [2]; [9],49.85 (±3.20) mm
same,SDDA area increase,"P. acnes NCTC 737 [2]; quinone + CSL, unsupplemented",47.88%
same,SDDA increase,"P. acnes NCTC 737 [2]; quinone + CSL, unsupplemented",8.82 mm
same,SL SDDA area increase,P. acnes NCTC 737 [2]; [10],18.59%
same,SL SDDA increase,P. acnes NCTC 737 [2]; [10],4.41 mm
same,SL SDDA with CSPH,P. acnes NCTC 737 [2]; [10],53.95 (±1.16) mm
same,SDDA area increase,"P. acnes NCTC 737 [2]; quinone + CSPH, unsupplemented",38.80%
same,SDDA increase,"P. acnes NCTC 737 [2]; quinone + CSPH, unsupplemented",7.49 mm
same,DDA,P. acnes NCTC 737 [4],33.74 (±1.52) mm
same,DDA + salt & lipid,P. acnes NCTC 737 [4]; [11],35.18 (±1.24) mm
On1ccccc1=S.On1ccccc1=S.[Cu] [Copper (II) pyrithione],SDDA area increase,S. aureus ATCC 29213 [1],150.13%
same,SDDA increase,S. aureus ATCC 29213 [1],19.29 mm
same,SDDA with TBHQ,S. aureus ATCC 29213 [1],52.45 mm
same,SS SDDA area increase,S. aureus ATCC 29213 [1],66.12%
same,SS SDDA increase,S. aureus ATCC 29213 [1],9.29 mm
same,SS SDDA with TBHQ,S. aureus ATCC 29213 [1],41.43 mm
same,SDDA area increase,P. acnes NCTC 737 [2],18.55%
same,SDDA increase,P. acnes NCTC 737 [2],5.01 mm
same,SDDA with TBHQ,P. acnes NCTC 737 [2],61.43 mm
same,SL SDDA area increase,P. acnes NCTC 737 [2],7.64%
same,SL SDDA increase,P. acnes NCTC 737 [2],1.25 mm
same,SL SDDA with TBHQ,P. acnes NCTC 737 [2],34.63 mm
same,DDA,S. aureus ATCC 29213 [3],20.51 mm
same,DDA + lipid,S. aureus ATCC 29213 [3],15.25 mm
same,DDA + salt,S. aureus ATCC 29213 [3],21.48 mm
same,DDA + salt & serum,S. aureus ATCC 29213 [3],17.86 mm
same,DDA,P. acnes NCTC 737 [4],56.42 mm
same,DDA + lipid,P. acnes NCTC 737 [4],22.38 mm
same,DDA + salt,P. acnes NCTC 737 [4],43.21 mm
same,DDA + salt & lipid,P. acnes NCTC 737 [4],33.37 mm
same,MIC,P. acnes NCTC 737 [5],0.24 µg/mL
same,MIC/MBC ratio,P. acnes NCTC 737 [5],0.5
same,MBC,P. acnes NCTC 737 [6],0.49 µg/mL
same,MBC,S. aureus ATCC 29213 [7],0.49 µg/mL
same,MIC,S. aureus ATCC 29213 [8],0.49 µg/mL
same,MIC/MBC ratio,S. aureus ATCC 29213 [8],1
Copper (II) silicate,SS SDDA with TBHQ,"S. aureus ATCC 29213 [1]; copper salt + TBHQ on one disc, 200 μg of each (silicate 62 μg), salt and serum supplements",57.26 mm
same,SDDA with TBHQ,S. aureus ATCC 29213 [1]; [12],71.79 mm
same,SDDA increase,S. aureus ATCC 29213 [1]; [13],31.37 mm
same,SS SDDA area increase,S. aureus ATCC 29213 [1]; [14],71.85%
same,SS SDDA increase,S. aureus ATCC 29213 [1]; [14],13.58 mm
same,SDDA area increase,S. aureus ATCC 29213 [1]; [15],215.45%
same,SL SDDA with TBHQ,"P. acnes NCTC 737 [2]; copper salt + TBHQ on one disc, 200 μg of each (silicate 62 μg), salt and lipid (1% (v/v) Tween 80)",54.96 mm
same,SDDA with TBHQ,P. acnes NCTC 737 [2]; [12],54.44 mm
same,SDDA increase,P. acnes NCTC 737 [2]; [13],8.76 mm
same,SL SDDA area increase,P. acnes NCTC 737 [2]; [16],26.80%
same,SL SDDA increase,P. acnes NCTC 737 [2]; [16],6.15 mm
same,SDDA area increase,P. acnes NCTC 737 [2]; [15],42.03%
same,DDA + salt & serum,"S. aureus ATCC 29213 [3]; Example 9, single compound, salt and serum",0.00 (±0.00) mm
same,DDA + lipid,"S. aureus ATCC 29213 [3]; copper salt alone, 200 μg per disc (silicate 62 μg), Tween 80 at 1% v/v",0 mm
same,DDA + salt & serum,"S. aureus ATCC 29213 [3]; copper salt alone, 200 μg per disc (silicate 62 μg), salt and horse serum (5% v/v)",0 mm
same,DDA + salt,S. aureus ATCC 29213 [3]; [17],0 mm
same,DDA + salt & lipid,P. acnes NCTC 737 [4]; [11],42.56 (±2.18) mm
same,DDA + lipid,"P. acnes NCTC 737 [4]; copper salt alone, 200 μg per disc (silicate 62 μg), 1% (v/v) Tween 80",33.40 mm
same,DDA + salt & lipid,"P. acnes NCTC 737 [4]; copper salt alone, 200 μg per disc (silicate 62 μg), salt and 1% (v/v) Tween 80",48.81 mm
same,DDA + salt,P. acnes NCTC 737 [4]; [17],41.44 mm
same,MIC,P. acnes NCTC 737 [5]; [18],4.84 µg/mL
same,MIC/MBC ratio,P. acnes NCTC 737 [5]; [18],0.125
same,MBC,P. acnes NCTC 737 [6]; [18],38.75 µg/mL
same,MBC,S. aureus ATCC 29213 [7]; [19],>77.5 µg/mL
same,MIC,S. aureus ATCC 29213 [8]; [19],>77.5 µg/mL
